Test results taken from PMC9297976 (Journal of Applied Toxicology, 2021).

Key:
[1] = target: T1, medaka ARβ (mArβ) (Oryzias latipes, UniProt D1MV73); experiment: Medaka ARβ reporter gene assay, antagonist assay; format: cell-based, Japanese medaka (Oryzias latipes)
T1 sequence (D1MV73 1-744): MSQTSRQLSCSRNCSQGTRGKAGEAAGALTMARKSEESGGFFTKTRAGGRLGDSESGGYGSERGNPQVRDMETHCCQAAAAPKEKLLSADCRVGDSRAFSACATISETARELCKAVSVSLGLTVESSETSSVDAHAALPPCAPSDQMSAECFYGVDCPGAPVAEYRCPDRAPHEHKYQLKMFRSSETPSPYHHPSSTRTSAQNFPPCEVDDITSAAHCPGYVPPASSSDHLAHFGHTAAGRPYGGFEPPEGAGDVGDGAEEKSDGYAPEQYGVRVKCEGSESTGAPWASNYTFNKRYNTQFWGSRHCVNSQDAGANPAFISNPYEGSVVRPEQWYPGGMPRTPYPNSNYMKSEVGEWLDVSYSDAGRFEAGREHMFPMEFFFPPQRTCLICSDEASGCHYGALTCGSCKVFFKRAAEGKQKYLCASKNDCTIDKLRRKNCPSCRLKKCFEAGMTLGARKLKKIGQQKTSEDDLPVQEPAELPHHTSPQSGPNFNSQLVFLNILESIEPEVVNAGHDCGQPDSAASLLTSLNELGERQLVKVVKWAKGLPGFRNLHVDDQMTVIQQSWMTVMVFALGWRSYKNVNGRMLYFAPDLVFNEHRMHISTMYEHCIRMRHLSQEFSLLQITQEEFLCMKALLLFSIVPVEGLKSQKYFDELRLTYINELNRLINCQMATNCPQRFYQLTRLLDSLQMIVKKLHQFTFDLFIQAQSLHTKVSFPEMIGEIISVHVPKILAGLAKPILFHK

[2] = target: T2, medaka Esr1 (mEsr1) (Oryzias latipes, UniProt P50241); experiment: cell-based; parameters: species or system Japanese medaka (Oryzias latipes)
T2 sequence (P50241 1-620): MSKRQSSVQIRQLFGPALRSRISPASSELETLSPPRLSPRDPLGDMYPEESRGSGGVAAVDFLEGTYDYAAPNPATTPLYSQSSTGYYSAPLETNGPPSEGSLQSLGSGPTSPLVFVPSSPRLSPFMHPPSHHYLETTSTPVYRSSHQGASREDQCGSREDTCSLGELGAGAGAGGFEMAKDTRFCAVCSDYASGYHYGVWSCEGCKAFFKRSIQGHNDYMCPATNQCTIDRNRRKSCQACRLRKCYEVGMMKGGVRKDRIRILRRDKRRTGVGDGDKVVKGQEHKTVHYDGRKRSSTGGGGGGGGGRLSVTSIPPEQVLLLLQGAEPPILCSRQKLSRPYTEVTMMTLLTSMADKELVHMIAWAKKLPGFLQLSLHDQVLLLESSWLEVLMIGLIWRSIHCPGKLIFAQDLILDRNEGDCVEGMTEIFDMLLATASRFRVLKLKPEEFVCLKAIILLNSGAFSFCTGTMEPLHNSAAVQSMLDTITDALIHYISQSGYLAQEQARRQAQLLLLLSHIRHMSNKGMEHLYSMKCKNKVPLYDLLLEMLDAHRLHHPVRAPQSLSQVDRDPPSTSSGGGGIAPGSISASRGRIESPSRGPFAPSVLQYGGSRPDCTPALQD

[3] = target: T2, medaka Esr1 (mEsr1); experiment: Medaka Esr1 reporter gene assay, antagonist assay; format: cell-based, Japanese medaka (Oryzias latipes); details: E2 spiked at 1.0 nM (B); MAC = 1.0 × 10^−5 M
[4] = target: T1, medaka ARβ (mArβ); experiment: Medaka ARβ reporter gene assay, agonist assay; format: cell-based, Japanese medaka (Oryzias latipes)
[5] = tested on: Japanese medaka (Oryzias latipes); experiment: Fish Short‐Term Reproduction Assay; format: in vivo; details: for GSI Female / GSI Male / HSI Female / HSI Male / Length Female / Length Male / Weight Female / Weight Male: completion of exposure
[6] = measured concentration 25.3 μg/L
[7] = measured concentration 82.3 μg/L
[8] = measured concentration 250 μg/L

Oc1cccc2ccccc12 [Chemical 1NT, 1‐Naphtol]
Antagonistic activity ([1]; 11‐KT spiked at 10 nM (C), MAC = 1.0 × 10^−4 M): NE (MAC = 1.0 × 10^−4 M)^(C)
In vitro positive: Esr ([2]; mode of action in which EC50 or PC10 was obtained in RGA): Esr
EC50 ([2]; read-out: Agonistic activity EC50, HEK293 cells): 78 µM
Antagonistic activity [3]: NE (MAC = 1.0 × 10^−5 M)^(B)
Agonistic activity PC10 ([4]; HepG2 cells, concentration with 10% of maximum activity of 11KT): PC10 = 3.3 × 10^−5 M
Agonistic activity on mArβ (in words) ([4]; only PC10 and not EC50 could be estimated): positive agonistic activity

CC(C)(C)CC(C)(C)c1ccc(O)cc1 [Chemical 4tOP, 4‐tert‐Octylphenol]
Antagonistic activity ([1]; 11‐KT spiked at 50 nM (D), MAC = 1.0 × 10^−5 M): NE (MAC = 1.0 × 10^−5 M)^(D)
Fertility rate ([5]; 25.3 μg/L measured, 21 d): 91 ± 5.1%
Hepatic VTG, female ([5]; 25.3 μg/L measured, 21 d): 3,710 ± 617 ng/mg‐liver
Hepatic VTG, male ([5]; 25.3 μg/L measured, 21 d): 3.2 ± 2.2 ng/mg‐liver
Mortality ([5]; 25.3 μg/L measured, 21 d): 0.0%
Mortality, number of dead fish ([5]; 25.3 μg/L measured, 21 d): 0
Number of fertilized eggs (per female per day) ([5]; 25.3 μg/L measured, 21 d): 24 ± 3.5
Number of total eggs (per female per day) ([5]; 25.3 μg/L measured, 21 d): 26 ± 3.2
SSC female (joint plates with papillary processes) ([5]; 25.3 μg/L measured, 21 d): 0 ± 0
SSC male (joint plates with papillary processes) ([5]; 25.3 μg/L measured, 21 d): 99 ± 4.1
Fertility rate ([5]; 82.3 μg/L measured, 21 d): 92 ± 2.1%
Hepatic VTG, female ([5]; 82.3 μg/L measured, 21 d): 4,380 ± 1,350 ng/mg‐liver
Mortality ([5]; 82.3 μg/L measured, 21 d): 4.2%
Mortality, number of dead fish ([5]; 82.3 μg/L measured, 21 d): 1
Number of fertilized eggs (per female per day) ([5]; 82.3 μg/L measured, 21 d): 24 ± 1.5
Number of total eggs (per female per day) ([5]; 82.3 μg/L measured, 21 d): 27 ± 1.3
SSC female (joint plates with papillary processes) ([5]; 82.3 μg/L measured, 21 d): 0 ± 0
Hepatic VTG, male ([5]; 82.3 μg/L measured, 21 d, sig. ↑ vs control): 5.6 ± 1.9 ng/mg‐liver
Fertility rate ([5]; 250 μg/L measured, 21 d): 89 ± 3.3%
Hepatic VTG, female ([5]; 250 μg/L measured, 21 d): 5,290 ± 2030 ng/mg‐liver
Mortality ([5]; 250 μg/L measured, 21 d): 0.0%
Mortality, number of dead fish ([5]; 250 μg/L measured, 21 d): 0
Number of fertilized eggs (per female per day) ([5]; 250 μg/L measured, 21 d): 21 ± 2.6
Number of total eggs (per female per day) ([5]; 250 μg/L measured, 21 d): 23 ± 2.6
SSC female (joint plates with papillary processes) ([5]; 250 μg/L measured, 21 d): 0 ± 0
SSC male (joint plates with papillary processes) ([5]; 250 μg/L measured, 21 d): 98 ± 8.5
LOEC, elevated hepatic VTG in males ([5]; 21 d): 82.3 µg/L
LOECREPRO ([5]; LOEC on reproduction (fecundity and/or fertility)): ND (>250) μg/L
minimal effective concentration ([5]; Oryzias latipes, 504 h, read-out: LOECmVTG): 0.0823 µg/mL
LOECTOX ([5]; lowest observed effect concentration on mortality): ND (>250) μg/L
GSI Female [5, 6]: 11.4 ± 1.6%
GSI Male [5, 6]: 0.83 ± 0.11%
HSI Female [5, 6]: 4.6 ± 0.82%
HSI Male [5, 6]: 2.1 ± 0.16%
Length Female [5, 6]: 37.8 ± 0.5 mm
Length Male [5, 6]: 37.0 ± 0.9 mm
Weight Female [5, 6]: 625 ± 55 mg
Weight Male [5, 6]: 608 ± 31 mg
GSI Female [5, 7]: 10.7 ± 0.4%
GSI Male [5, 7]: 0.81 ± 0.08%
HSI Female [5, 7]: 4.1 ± 0.58%
HSI Male [5, 7]: 2.6 ± 0.10%
Length Female [5, 7]: 37.0 ± 0.2 mm
Length Male [5, 7]: 37.9 ± 0.6 mm
Weight Female [5, 7]: 599 ± 16 mg
Weight Male [5, 7]: 630 ± 44 mg
GSI Female [5, 8]: 11.1 ± 2.0%
GSI Male [5, 8]: 0.81 ± 0.08%
HSI Female [5, 8]: 4.5 ± 0.29%
HSI Male [5, 8]: 2.9 ± 0.28%
Length Female [5, 8]: 36.7 ± 0.5 mm
Length Male [5, 8]: 37.4 ± 0.4 mm
Weight Female [5, 8]: 605 ± 10 mg
Weight Male [5, 8]: 626 ± 21 mg
Agonistic activity ([4]; MAC = 1.0 × 10^−5 M): NE (MAC = 1.0 × 10^−5 M)

C[C@]12CC(=O)[C@H]3[C@@H](CCC4=CC(=O)CC[C@@]43C)[C@@H]1CC[C@@H]2O [Chemical 11KT, 11‐ketotestosterone, reference compound]
EC50 ([4]; read-out: Agonistic activity EC50, geometric mean, positive control, n = 5): 0.0058 µM
